Results: ChEMBL document CHEMBL1250468, “Synthesis of aryl-heteroaryl ureas (AHUs) based on 4-aminoquinoline and their evaluation against the insulin-like growth factor receptor (IGF-1R)” (Bioorg Med Chem, 2010)

target: Insulin-like growth factor 1 receptor (Homo sapiens, UniProt P08069); assay: Inhibition of recombinant IGF1R by ELISA
Sequence (P08069 31-736 limits assumed): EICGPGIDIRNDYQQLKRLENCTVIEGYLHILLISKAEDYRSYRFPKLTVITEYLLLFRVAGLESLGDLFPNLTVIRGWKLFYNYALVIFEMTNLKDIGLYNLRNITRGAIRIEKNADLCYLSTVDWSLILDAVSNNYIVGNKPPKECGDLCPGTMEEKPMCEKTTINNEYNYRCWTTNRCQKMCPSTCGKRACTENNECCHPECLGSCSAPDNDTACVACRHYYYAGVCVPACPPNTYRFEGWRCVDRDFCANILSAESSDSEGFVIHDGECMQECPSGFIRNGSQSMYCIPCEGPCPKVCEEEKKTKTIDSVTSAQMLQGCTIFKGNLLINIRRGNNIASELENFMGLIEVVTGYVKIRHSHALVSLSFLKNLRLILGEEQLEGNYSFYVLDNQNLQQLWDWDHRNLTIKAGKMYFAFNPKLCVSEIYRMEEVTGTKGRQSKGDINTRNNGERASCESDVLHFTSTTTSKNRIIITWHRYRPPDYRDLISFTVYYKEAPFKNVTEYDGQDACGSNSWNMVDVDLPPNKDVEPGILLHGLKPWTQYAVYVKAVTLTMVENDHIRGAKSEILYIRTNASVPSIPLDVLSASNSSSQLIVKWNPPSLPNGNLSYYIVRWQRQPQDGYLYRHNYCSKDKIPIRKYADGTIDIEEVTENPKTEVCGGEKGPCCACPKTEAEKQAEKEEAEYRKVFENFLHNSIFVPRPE
Sequence (P08069 741-1367 limits assumed): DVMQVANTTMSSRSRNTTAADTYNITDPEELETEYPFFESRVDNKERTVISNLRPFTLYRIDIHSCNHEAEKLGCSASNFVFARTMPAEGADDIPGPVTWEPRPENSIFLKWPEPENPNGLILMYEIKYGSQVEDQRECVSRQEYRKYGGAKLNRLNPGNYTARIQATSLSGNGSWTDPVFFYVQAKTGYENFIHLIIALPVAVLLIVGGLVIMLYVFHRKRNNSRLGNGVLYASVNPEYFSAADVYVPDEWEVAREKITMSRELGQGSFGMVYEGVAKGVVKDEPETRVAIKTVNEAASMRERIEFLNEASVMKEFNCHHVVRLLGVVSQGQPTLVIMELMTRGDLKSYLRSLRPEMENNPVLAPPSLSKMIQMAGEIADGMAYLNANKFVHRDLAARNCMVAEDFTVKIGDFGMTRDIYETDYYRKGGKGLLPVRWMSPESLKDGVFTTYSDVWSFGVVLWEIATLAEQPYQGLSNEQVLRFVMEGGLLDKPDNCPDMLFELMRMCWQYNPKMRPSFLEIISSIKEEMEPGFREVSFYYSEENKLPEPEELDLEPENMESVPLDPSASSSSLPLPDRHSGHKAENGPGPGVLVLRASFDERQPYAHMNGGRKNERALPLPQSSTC

Row | IC50 [µM] | Structure (SMILES)
1 | 6.5 | COc1ccc(Cl)cc1NC(=O)Nc1cc(=O)[nH]c2ccccc12
2 | > 30 | COc1ccc(NC(=O)Nc2cc(C(F)(F)F)nc3ccccc23)cc1
3 | > 30 | COc1ccc(NC(=O)Nc2cc(Cl)nc3ccccc23)cc1Cl
4 | > 30 | Cc1cc(NC(=O)Nc2cccc(-c3ncccn3)c2)c2ccccc2n1
5 | > 30 | Cc1cc(NC(=O)Nc2ccc(-c3ncccn3)cc2)c2ccccc2n1
6 | > 30 | O=C(Nc1cccc(-c2ncccn2)c1)Nc1cc(C(F)(F)F)nc2ccccc12
7 | > 30 | O=C(Nc1ccc(-c2ncccn2)cc1)Nc1cc(Cl)nc2ccccc12
8 | 28.1 | O=C(Nc1ccc(Cl)cc1)Nc1cc(C(F)(F)F)nc2ccccc12
9 | 24.7 | COc1ccc(Cl)cc1NC(=O)Nc1cc(C)nc2ncccc12
10 | 27.1 | O=C(Nc1ccc([N+](=O)[O-])cc1)Nc1cc(C(F)(F)F)nc2ccccc12
11 | > 30 | COc1cc(OC)c(NC(=O)Nc2cc(C)nc3cnccc23)cc1Cl
12 | 6.7 | O=C(Nc1ccc(OC(F)(F)F)cc1)Nc1cc(C(F)(F)F)nc2ccccc12
13 | 5.6 | Cc1cncc(Oc2ccc(NC(=O)Nc3cc(C)nc4ccccc34)cc2)n1
14 | > 30 | COc1ccc(Cl)cc1NC(=O)Nc1cc(C)nc2cnccc12
15 | > 30 | Cc1cc(NC(=O)Nc2ccc(Cl)cc2)c2ccccc2n1
16 | 5.2 | Cc1cncc(Oc2ccc(NC(=O)Nc3cc(C(F)(F)F)nc4ccccc34)cc2)n1
17 | 18.7 | COc1ccc(Cl)cc1NC(=O)Nc1cc(C)nc2ccccc12
18 | > 30 | Cc1cncc(Oc2ccc(NC(=O)Nc3cc(Cl)nc4ccccc34)cc2)n1
19 | 20.5 | COc1ccc(Cl)cc1NC(=O)Nc1cc(C)nc2c1CCCN2
20 | > 30 | COc1ccc(NC(=O)Nc2cc(Cl)nc3ccccc23)cc1
21 | 21.4 | O=C(Nc1ccc(OC(F)(F)F)cc1)Nc1cc(Cl)nc2ccccc12
22 | 14.9 | COc1ccc(Cl)cc1NC(=O)Nc1cc(Cl)nc2ccccc12
23 | > 30 | COc1ccc(NC(=O)Nc2cc(C)nc3ccccc23)cc1Cl
24 | 19.3 | O=C(Nc1ccc(-c2ncccn2)cc1)Nc1cc(C(F)(F)F)nc2ccccc12
25 | > 30 | O=C(Nc1cccc(-c2ncccn2)c1)Nc1cc(Cl)nc2ccccc12
26 | 12.5 | Cc1cncc(Oc2ccc(NC(=O)Nc3cc(C)nc4ncccc34)cc2)n1
27 | 21.1 | O=C(Nc1ccc(Cl)cc1)Nc1cc(Cl)nc2ccccc12
